Laboratory results as given in PubChem BioAssay (NCI).
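In this assay, cells in 96-well plates receive the compound at five concentrations for 48 hours. Endpoints are linearly interpolated between the surrounding concentrations. TGI is the concentration that stops growth completely.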

Legend:
Assay in all cases: NCI anticancer screen, dose series, 48 h
[1] = tested on: HCC-2998 colon
[2] = tested on: HL-60(TB) leukemia
[3] = tested on: SF-295 CNS
[4] = tested on: COLO 205 colon
[5] = tested on: HOP-92 NSCLC
[6] = tested on: M14 melanoma
[7] = tested on: EKVX NSCLC
[8] = tested on: MDA-N
[9] = tested on: RPMI-8226 leukemia
[10] = tested on: SK-MEL-5 melanoma
[11] = tested on: T-47D breast
[12] = tested on: SW-620 colon
[13] = tested on: NCI-H522 lung
[14] = tested on: NCI-H460 lung
[15] = tested on: SF-268 CNS
[16] = tested on: UO-31 renal
[17] = tested on: MDA-MB-435
[18] = tested on: RXF 393 renal
[19] = tested on: A498 renal
[20] = tested on: 786-0 renal
[21] = tested on: NCI/ADR-RES ovarian
[22] = tested on: LOX IMVI melanoma
[23] = tested on: UACC-257 melanoma
[24] = tested on: SNB-75 CNS
[25] = tested on: MDA-MB-231 breast
[26] = tested on: PC-3 prostate
[27] = tested on: TK-10 renal
[28] = tested on: SK-MEL-2 melanoma
[29] = tested on: SK-OV-3 ovarian
[30] = tested on: HT29 colon
[31] = tested on: CAKI-1 renal
[32] = tested on: SK-MEL-28 melanoma
[33] = tested on: DU-145 prostate
[34] = tested on: OVCAR-8 ovarian
[35] = tested on: SNB-19 CNS
[36] = tested on: MCF7 breast
[37] = tested on: IGROV1 ovarian
[38] = tested on: HCT-15 colon
[39] = tested on: CCRF-CEM leukemia
[40] = tested on: NCI-H23 lung
[41] = tested on: HCT-116 colon
[42] = tested on: KM12 colon
[43] = tested on: UACC-62 melanoma
[44] = tested on: SF-539 CNS
[45] = tested on: HOP-62 NSCLC
[46] = tested on: MALME-3M melanoma
[47] = tested on: SN12C renal
[48] = tested on: BT-549 breast
[49] = tested on: ACHN renal
[50] = tested on: SR leukemia
[51] = tested on: HS 578T breast
[52] = tested on: OVCAR-3 ovarian
[53] = tested on: U251 CNS
[54] = tested on: A549 NSCLC
[55] = tested on: K-562 leukemia
[56] = tested on: OVCAR-5 ovarian
[57] = tested on: MOLT-4 leukemia
[58] = tested on: OVCAR-4 ovarian
[59] = tested on: NCI-H226 lung

## O=C1Nc2cccc(Cl)c2/C1=C\c1c(Cl)nc2sccn12
[1]
  TGI: > 100000 nM
[2]
  TGI: > 100000 nM
[3]
  TGI: > 100000 nM
[4]
  TGI: > 100000 nM
[5]
  TGI: 46200 nM
[6]
  TGI: > 100000 nM
[7]
  TGI: > 100000 nM
[8]
  TGI: > 100000 nM
[9]
  TGI: > 100000 nM
[10]
  TGI: > 100000 nM
[11]
  TGI: > 100000 nM
[12]
  TGI: > 100000 nM
[13]
  TGI: > 100000 nM
[14]
  TGI: > 100000 nM
[15]
  TGI: 52500 nM
[16]
  TGI: > 100000 nM
[17]
  TGI: > 100000 nM
[18]
  TGI: 29600 nM
[19]
  TGI: > 100000 nM
[20]
  TGI: 24600 nM
[21]
  TGI: > 100000 nM
[22]
  TGI: > 100000 nM
[23]
  TGI: > 100000 nM
[24]
  TGI: 26300 nM
[25]
  TGI: 40300 nM
[26]
  TGI: > 100000 nM
[27]
  TGI: 24600 nM
[28]
  TGI: 30200 nM
[29]
  TGI: 31000 nM
[30]
  TGI: > 100000 nM
[31]
  TGI: > 100000 nM
[32]
  TGI: > 100000 nM
[33]
  TGI: > 100000 nM
[34]
  TGI: > 100000 nM
[35]
  TGI: 39700 nM
[36]
  TGI: > 100000 nM
[37]
  TGI: > 100000 nM
[38]
  TGI: > 100000 nM
[39]
  TGI: > 100000 nM
[40]
  TGI: 66300 nM
[41]
  TGI: > 100000 nM
[42]
  TGI: > 100000 nM
[43]
  TGI: > 100000 nM
[44]
  TGI: 18800 nM
[45]
  TGI: 33800 nM
[46]
  TGI: > 100000 nM
[47]
  TGI: > 100000 nM
[48]
  TGI: 74900 nM
[49]
  TGI: 29400 nM
[50]
  TGI: > 100000 nM
[51]
  TGI: 57500 nM
[52]
  TGI: > 100000 nM
[53]
  TGI: 21500 nM
[54]
  TGI: > 100000 nM
[55]
  TGI: > 100000 nM
[56]
  TGI: > 100000 nM
[57]
  TGI: > 100000 nM

## O=[N+]([O-])c1cccc2nc3ccccc3c(NCCc3cccc[n+]3[O-])c12
[1]
  TGI: < 10 nM
[2]
  TGI: 277 nM
[3]
  TGI: 266 nM
[4]
  TGI: < 16.8 nM
[5]
  TGI: < 50.7 nM
[6]
  TGI: < 17.2 nM
[7]
  TGI: 121 nM
[8]
  TGI: 46.4 nM
[9]
  TGI: 67.9 nM
[10]
  TGI: < 10 nM
[11]
  TGI: 852 nM
[58]
  TGI: 212 nM
[12]
  TGI: 197 nM
[13]
  TGI: 157 nM
[14]
  TGI: 174 nM
[15]
  TGI: 202 nM
[17]
  TGI: < 18.4 nM
[18]
  TGI: 110 nM
[19]
  TGI: 225 nM
[20]
  TGI: 249 nM
[21]
  TGI: 8670 nM
[22]
  TGI: 121 nM
[23]
  TGI: 64.7 nM
[25]
  TGI: 53.8 nM
[26]
  TGI: 1510 nM
[27]
  TGI: 225 nM
[28]
  TGI: 528 nM
[29]
  TGI: 979 nM
[30]
  TGI: 62.8 nM
[31]
  TGI: 901 nM
[32]
  TGI: < 10 nM
[33]
  TGI: < 27.7 nM
[34]
  TGI: 302 nM
[35]
  TGI: 1620 nM
[36]
  TGI: 276 nM
[38]
  TGI: 63.9 nM
[40]
  TGI: 66.1 nM
[42]
  TGI: 552 nM
[43]
  TGI: 211 nM
[44]
  TGI: 194 nM
[45]
  TGI: 245 nM
[46]
  TGI: < 34 nM
[47]
  TGI: 280 nM
[48]
  TGI: 91.7 nM
[49]
  TGI: 39 nM
[50]
  TGI: 161 nM
[51]
  TGI: 299 nM
[52]
  TGI: 110 nM
[53]
  TGI: 145 nM
[54]
  TGI: < 47.6 nM
[59]
  TGI: 562 nM
[55]
  TGI: > 100000 nM
[56]
  TGI: 145 nM

## O=P(O)(O)c1ccccc1 (tested in a mixture with another compound)
[1]
  TGI: > 100000 nM
[2]
  TGI: > 100000 nM
[3]
  TGI: > 100000 nM
[4]
  TGI: > 100000 nM
[5]
  TGI: > 100000 nM
[6]
  TGI: > 100000 nM
[7]
  TGI: > 100000 nM
[8]
  TGI: > 100000 nM
[9]
  TGI: > 100000 nM
[10]
  TGI: > 100000 nM
[11]
  TGI: > 100000 nM
[58]
  TGI: > 100000 nM
[12]
  TGI: > 100000 nM
[13]
  TGI: > 100000 nM
[14]
  TGI: > 100000 nM
[15]
  TGI: > 100000 nM
[16]
  TGI: > 100000 nM
[17]
  TGI: > 100000 nM
[18]
  TGI: > 100000 nM
[19]
  TGI: > 100000 nM
[20]
  TGI: > 100000 nM
[21]
  TGI: > 100000 nM
[22]
  TGI: > 100000 nM
[23]
  TGI: > 100000 nM
[24]
  TGI: > 100000 nM
[25]
  TGI: > 100000 nM
[26]
  TGI: > 100000 nM
[27]
  TGI: > 100000 nM
[28]
  TGI: > 100000 nM
[29]
  TGI: > 100000 nM
[30]
  TGI: > 100000 nM
[31]
  TGI: > 100000 nM
[32]
  TGI: > 100000 nM
[33]
  TGI: > 100000 nM
[34]
  TGI: > 100000 nM
[35]
  TGI: > 100000 nM
[36]
  TGI: > 100000 nM
[37]
  TGI: > 100000 nM
[38]
  TGI: > 100000 nM
[39]
  TGI: > 100000 nM
[40]
  TGI: > 100000 nM
[41]
  TGI: > 100000 nM
[42]
  TGI: > 100000 nM
[43]
  TGI: > 100000 nM
[45]
  TGI: > 100000 nM
[46]
  TGI: > 100000 nM
[47]
  TGI: > 100000 nM
[48]
  TGI: > 100000 nM
[49]
  TGI: > 100000 nM
[50]
  TGI: > 100000 nM
[51]
  TGI: > 100000 nM
[52]
  TGI: > 100000 nM
[53]
  TGI: > 100000 nM
[54]
  TGI: > 100000 nM
[59]
  TGI: > 100000 nM
[55]
  TGI: > 100000 nM
[56]
  TGI: > 100000 nM

## CN(C)CCNc1ccc2c(=O)n(CCN(C)C)c(=O)n3c4ccc([N+](=O)[O-])cc4c(=O)c1c23
[1]
  TGI: 2270 nM
[2]
  TGI: 417 nM
[3]
  TGI: 2310 nM
[4]
  TGI: 2120 nM
[5]
  TGI: 3330 nM
[6]
  TGI: 2380 nM
[7]
  TGI: 2830 nM
[8]
  TGI: 1380 nM
[9]
  TGI: 605 nM
[10]
  TGI: 2230 nM
[11]
  TGI: 6890 nM
[58]
  TGI: 2800 nM
[12]
  TGI: 1780 nM
[13]
  TGI: 263 nM
[14]
  TGI: 1530 nM
[15]
  TGI: 3330 nM
[16]
  TGI: 4060 nM
[17]
  TGI: 1830 nM
[18]
  TGI: 996 nM
[19]
  TGI: 5550 nM
[20]
  TGI: 2740 nM
[21]
  TGI: 2100 nM
[22]
  TGI: 1100 nM
[23]
  TGI: 4420 nM
[24]
  TGI: 1260 nM
[25]
  TGI: 2210 nM
[26]
  TGI: 2430 nM
[27]
  TGI: 7100 nM
[28]
  TGI: 1310 nM
[29]
  TGI: 6720 nM
[30]
  TGI: 658 nM
[31]
  TGI: 10200 nM
[32]
  TGI: 2660 nM
[33]
  TGI: 6540 nM
[34]
  TGI: 3990 nM
[35]
  TGI: 4510 nM
[36]
  TGI: 1040 nM
[37]
  TGI: 1290 nM
[38]
  TGI: 1490 nM
[39]
  TGI: 381 nM
[40]
  TGI: 777 nM
[41]
  TGI: 1240 nM
[42]
  TGI: 4950 nM
[43]
  TGI: 3170 nM
[44]
  TGI: 1680 nM
[45]
  TGI: 3850 nM
[46]
  TGI: 1370 nM
[47]
  TGI: 1560 nM
[48]
  TGI: 2660 nM
[49]
  TGI: 3830 nM
[50]
  TGI: 581 nM
[51]
  TGI: 3090 nM
[52]
  TGI: 2270 nM
[53]
  TGI: 2880 nM
[54]
  TGI: 2260 nM
[59]
  TGI: 4010 nM
[55]
  TGI: 1940 nM
[56]
  TGI: 4540 nM
[57]
  TGI: 68.5 nM
